In patent US8808737B2 (Endo Pharmaceuticals Inc., priority 2007, dated 2014):

Assays:
[1] = Example 5: plasma pharmacokinetics of oxymorphone and metabolites after EN3202 in renal impairment vs healthy controls; settings: for Mean bioavailability ratio (90% confidence interval) for AUC relative to controls / Mean bioavailability ratio (90% confidence interval) for Cmax relative to controls: ln-transformed; for AUC in plasma (mean, untransformed) / AUCT in plasma (mean, untransformed) / Cmax in plasma (mean, untransformed) / Ke, terminal elimination rate constant in plasma (mean) / Tmax in plasma (median) / t½, terminal elimination half-life in plasma (mean): single 20 mg dose of EN3202
Description: (§1) Attempts were made to match controls with the renal impaired patients with respect to age, gender, and weight. […] Naltrexone (50 mg) was administered on the evening prior to administration of the EN3202 dose.
In order to protect the subjects from potential opioid-related adverse events, a single 50-mg dose of the opioid antagonist ReVia® (naltrexone HCl) was administered at 20:00 the evening prior to administration of test medication. […] Subjects continued fasting until four (4) hours after dose administration. The subjects remained in an upright posture (sitting or standing) for 1 hour after dose administration. All doses were administered with 240 mL of water (room temperature), and the subjects were instructed to drink all the water.
(§2) Plasma and urine pharmacokinetic variables were calculated from the concentration data using standard, non-compartmental methods as outlined in the following table.
All pharmacokinetic results are summarized using appropriate descriptive statistics. Continuous variables were compared between renally impaired and control groups using appropriate parametric statistics. 90% confidence intervals were calculated for the differences or ratios between the renally impaired and control groups. In addition, the association between oral clearance (and other pharmacokinetic variables) and the severity of renal insufficiency (based on creatinine clearance) was explored.

[2] = Example 5: urinary excretion of oxymorphone and metabolites after EN3202 in renal impairment; settings: for Mean percentage of the administered dose excreted in the urine / Mean urinary elimination half-life: EN3202 20 mg; for Mean percentage of the administered dose excreted in the urine: 0-120 hours; for Mean (SD) Ratio of Metabolite/Parent Excreted in Urine: parent = oxymorphone; for Mean (SD) Percent of Dose Recovered in Urine (0-120 hours): single oral 20-mg dose of EN3202
Description: as §1
Each subject was to be instructed to void at the end of each interval (so that each collection interval began with an empty bladder). The void prior to administration of the test medication (time 0) served as the pre-dose blank and was not be included in the collection container.
as §2

[3] = Example 5: correlation of oxymorphone and metabolite plasma AUC / oral clearance with creatinine clearance; assay type: in vivo, human; settings: linear regression; for AUC/wt vs. CLCR: R-square / AUC/wt vs. CLCR: Slope: AUC normalized for body weight vs creatinine clearance; for AUC vs. CLCR: R-square / AUC vs. CLCR: Slope: plasma AUC vs creatinine clearance
From the text: Creatinine clearance (ClCR) was estimated at screening using the following Cockroft and Gault^8 equation: […]
All pharmacokinetic results are summarized using appropriate descriptive statistics.
The potential association between plasma AUC and creatinine clearance was explored using linear regression techniques and the results are summarized in Table 36 and FIG. 16.

[4] = Pain levels (VAS, categorical scale) vs plasma oxymorphone and 6-hydroxyoxymorphone after a single dose; assay type: in vivo, human; settings: single dose of oxymorphone, FIGS. 1-4
Description: For these tests, pain was measured using a Visual Analog Scale (VAS) or a Categorical Scale. The VAS scales consisted of a horizontal line, 100 mm in length. The left-hand end of the scale (0 mm) was marked with the descriptor “No Pain” and the right-hand end of the scale (100 mm) was marked with the descriptor “Extreme Pain”. Patients indicated their level of pain by making a vertical mark on the line. The VAS score was equal to the distance (in mm) from the left-hand end of the scale to the patient's mark. For the categorical scale, patients completed the following statement, “My pain at this time is” using the scale None=0, Mild=1, Moderate=2, or Severe=3.

[5] = EN3202 20 mg, mild renal impairment
[6] = EN3202 20 mg, moderate renal impairment
[7] = EN3202 20 mg, severe renal impairment
[8] = subjects with mild renal impairment
[9] = subjects with moderate renal impairment
[10] = subjects with severe renal impairment
[11] = Healthy Controls, listed as oxymorphone-3-glucuronide
[12] = Severe Impairment, listed as oxymorphone-3-glucuronide

CN1CC[C@]23c4c5ccc(O)c4O[C@H]2C(O)CC[C@@]3(O)[C@H]1C5 (some centres unmarked) [6-OH-oxymorphone, 6-hydroxy oxymorphone]
Mean bioavailability ratio (90% confidence interval) for AUC relative to controls [1, 5]: 0.9953 (0.6153-1.6100) | Mean bioavailability ratio (90% confidence interval) for Cmax relative to controls [1, 5]: 1.4818 | Mean bioavailability ratio (90% confidence interval) for AUC relative to controls [1, 6]: 0.9445 (0.5839-1.5279) | Mean bioavailability ratio (90% confidence interval) for AUC relative to controls [1, 7]: 1.3862 (0.8569-2.2423) | AUC in plasma (mean, untransformed) ([1]; Healthy Controls): 19.76 ng·h/mL | AUCT in plasma (mean, untransformed) ([1]; Healthy Controls): 14.95 ng·h/mL | Cmax in plasma (mean, untransformed) ([1]; Healthy Controls): 0.70 ng/mL | Ke, terminal elimination rate constant in plasma (mean) ([1]; Healthy Controls): 0.0449 | Tmax in plasma (median) ([1]; Healthy Controls): 1.5 h | t½, terminal elimination half-life in plasma (mean) ([1]; Healthy Controls): 22.20 h | AUC in plasma (mean, untransformed) ([1]; Mild Impairment): 18.57 ng·h/mL | AUCT in plasma (mean, untransformed) ([1]; Mild Impairment): 14.26 ng·h/mL | Cmax in plasma (mean, untransformed) ([1]; Mild Impairment): 0.99 ng/mL | Ke, terminal elimination rate constant in plasma (mean) ([1]; Mild Impairment): 0.0451 | Tmax in plasma (median) ([1]; Mild Impairment): 1.5 h | t½, terminal elimination half-life in plasma (mean) ([1]; Mild Impairment): 18.04 h | AUC in plasma (mean, untransformed) ([1]; Moderate Impairment): 17.64 ng·h/mL | AUCT in plasma (mean, untransformed) ([1]; Moderate Impairment): 11.70 ng·h/mL | Cmax in plasma (mean, untransformed) ([1]; Moderate Impairment): 0.76 ng/mL | Ke, terminal elimination rate constant in plasma (mean) ([1]; Moderate Impairment): 0.0312 | Tmax in plasma (median) ([1]; Moderate Impairment): 2.5 h | t½, terminal elimination half-life in plasma (mean) ([1]; Moderate Impairment): 27.82 h | AUC in plasma (mean, untransformed) ([1]; Severe Impairment): 32.04 ng·h/mL | AUCT in plasma (mean, untransformed) ([1]; Severe Impairment): 26.48 ng·h/mL | Cmax in plasma (mean, untransformed) ([1]; Severe Impairment): 0.99 ng/mL | Ke, terminal elimination rate constant in plasma (mean) ([1]; Severe Impairment): 0.0349 | Tmax in plasma (median) ([1]; Severe Impairment): 2.0 h | t½, terminal elimination half-life in plasma (mean) ([1]; Severe Impairment): 26.53 h | Mean percentage of the administered dose excreted in the urine ([2]; severe renal impairment): 0.16% | Mean urinary elimination half-life ([2]; healthy controls): 22.8 h | Mean urinary elimination half-life ([2]; mild renal impairment): 19.6 h | Mean urinary elimination half-life ([2]; moderate renal impairment): 22.4 h | Mean urinary elimination half-life ([2]; severe renal impairment): 34.4 h | Mean (SD) Ratio of Metabolite/Parent Excreted in Urine ([2]; healthy controls): 0.85 (0.27) | Mean (SD) Percent of Dose Recovered in Urine (0-120 hours) ([2]; healthy controls): 0.62 (0.28) % | Mean (SD) Ratio of Metabolite/Parent Excreted in Urine [2, 8]: 0.73 (0.45) | Mean (SD) Percent of Dose Recovered in Urine (0-120 hours) [2, 8]: 0.49 (0.15) % | Mean (SD) Ratio of Metabolite/Parent Excreted in Urine [2, 9]: 0.41 (0.22) | Mean (SD) Percent of Dose Recovered in Urine (0-120 hours) [2, 9]: 0.26 (0.14) % | Mean (SD) Ratio of Metabolite/Parent Excreted in Urine [2, 10]: 0.47 (0.42) | Mean (SD) Percent of Dose Recovered in Urine (0-120 hours) [2, 10]: 0.16 (0.11) % | AUC/wt vs. CLCR: R-square [3]: 0.1222 | AUC/wt vs. CLCR: Slope [3]: −0.0011 | AUC vs. CLCR: R-square [3]: 0.0977 | AUC vs. CLCR: Slope [3]: −0.1387 | Relation between pain relief and blood plasma level [4]: there is a correlation

CN1CC[C@]23c4c5ccc(O[C@@H]6O[C@H](C(=O)O)[C@@H](O)[C@H](O)[C@H]6O)c4O[C@H]2C(=O)CC[C@@]3(O)[C@H]1C5 [Oxymorphone-3-glucuronide, oxymorphone-3-glucuronide]
Mean plasma metabolite:oxymorphone ratio of AUC values (molar units) ([1]; EN3202 20 mg, healthy controls): 94.1 | Mean plasma metabolite:oxymorphone ratio of AUC values (molar units) [1, 5]: 132.3 | Mean bioavailability ratio (90% confidence interval) for AUC relative to controls [1, 5]: 1.7960 (1.3071-2.4677) | Mean bioavailability ratio (90% confidence interval) for Cmax relative to controls [1, 5]: 1.5769 (1.2146-2.0473) | Mean plasma metabolite:oxymorphone ratio of AUC values (molar units) [1, 6]: 191.4 | Mean bioavailability ratio (90% confidence interval) for AUC relative to controls [1, 6]: 3.1196 (2.2704-4.2863) | Mean bioavailability ratio (90% confidence interval) for Cmax relative to controls [1, 6]: 1.9830 (1.5274-2.5745) | Mean plasma metabolite:oxymorphone ratio of AUC values (molar units) [1, 7]: 505.6 | Mean bioavailability ratio (90% confidence interval) for AUC relative to controls [1, 7]: 9.0701 (6.6013-12.462) | Mean bioavailability ratio (90% confidence interval) for Cmax relative to controls [1, 7]: 3.1422 (2.4202-4.0795) | Mean increase in plasma AUC values relative to healthy controls ([1]; EN3202 20 mg, subjects with creatinine clearance values, 30 mL/min): ~9.7 fold | AUC in plasma (mean, untransformed) ([1]; Healthy Controls): 2439.7 ng·h/mL | AUCT in plasma (mean, untransformed) ([1]; Healthy Controls): 2309.5 ng·h/mL | Cmax in plasma (mean, untransformed) ([1]; Healthy Controls): 170.1 ng/mL | Tmax in plasma (median) ([1]; Healthy Controls): 3.0 h | t½, terminal elimination half-life in plasma (mean) ([1]; Healthy Controls): 9.53 h | AUC in plasma (mean, untransformed) [1, 11]: 2440 ng·h/mL | Cmax in plasma (mean, untransformed) [1, 11]: 170 ng/mL | t½, terminal elimination half-life in plasma (mean) [1, 11]: 9.5 h | AUC in plasma (mean, untransformed) ([1]; Mild Impairment): 4468.6 ng·h/mL | AUCT in plasma (mean, untransformed) ([1]; Mild Impairment): 4330.7 ng·h/mL | Cmax in plasma (mean, untransformed) ([1]; Mild Impairment): 280.2 ng/mL | Tmax in plasma (median) ([1]; Mild Impairment): 3.5 h | t½, terminal elimination half-life in plasma (mean) ([1]; Mild Impairment): 10.23 h | AUC in plasma (mean, untransformed) ([1]; Moderate Impairment): 8129.7 ng·h/mL | AUCT in plasma (mean, untransformed) ([1]; Moderate Impairment): 7959.9 ng·h/mL | Cmax in plasma (mean, untransformed) ([1]; Moderate Impairment): 359.7 ng/mL | Tmax in plasma (median) ([1]; Moderate Impairment): 4.5 h | t½, terminal elimination half-life in plasma (mean) ([1]; Moderate Impairment): 11.10 h | AUC in plasma (mean, untransformed) ([1]; Severe Impairment): 23604.2 ng·h/mL | AUCT in plasma (mean, untransformed) ([1]; Severe Impairment): 22313.6 ng·h/mL | Cmax in plasma (mean, untransformed) ([1]; Severe Impairment): 547.7 ng/mL | Tmax in plasma (median) ([1]; Severe Impairment): 11.0 h | t½, terminal elimination half-life in plasma (mean) ([1]; Severe Impairment): 22.09 h | AUC in plasma (mean, untransformed) [1, 12]: 23604 ng·h/mL | Cmax in plasma (mean, untransformed) [1, 12]: 548 ng/mL | t½, terminal elimination half-life in plasma (mean) [1, 12]: 22.1 h | Mean percentage of the administered dose excreted in the urine ([2]; healthy controls): 37.16% | Mean percentage of the administered dose excreted in the urine ([2]; severe renal impairment): 38.35% | Mean urinary elimination half-life ([2]; healthy controls): 12.7 h | Mean urinary elimination half-life ([2]; mild renal impairment): 9.8 h | Mean urinary elimination half-life ([2]; moderate renal impairment): 12.8 h | Mean urinary elimination half-life ([2]; severe renal impairment): 36.6 h | Mean (SD) Ratio of Metabolite/Parent Excreted in Urine ([2]; healthy controls): 51.78 (16.89) | Mean (SD) Percent of Dose Recovered in Urine (0-120 hours) ([2]; healthy controls): 37.16 (14.94) % | Mean (SD) Ratio of Metabolite/Parent Excreted in Urine [2, 8]: 72.17 (48.36) | Mean (SD) Percent of Dose Recovered in Urine (0-120 hours) [2, 8]: 44.36 (8.72) % | Mean (SD) Ratio of Metabolite/Parent Excreted in Urine [2, 9]: 70.62 (37.69) | Mean (SD) Percent of Dose Recovered in Urine (0-120 hours) [2, 9]: 38.87 (8.63) % | Mean (SD) Ratio of Metabolite/Parent Excreted in Urine [2, 10]: 112.44 (40.45) | Mean (SD) Percent of Dose Recovered in Urine (0-120 hours) [2, 10]: 38.35 (13.10) % | AUC/wt vs. CLCR: R-square [3]: 0.4911 | AUC/wt vs. CLCR: Slope [3]: −1.4140 | AUC vs. CLCR: R-square [3]: 0.4976 | AUC vs. CLCR: Slope [3]: −221.43
